Measured values published in ChEMBL document CHEMBL1146761, “Synthesis and biological activity of novel platinum(II) complexes of glutamate tethered to hydrophilic hematoporphyrin derivatives” (Bioorg Med Chem Lett, 2004).

Columns and labels:
L1210 = experiment: In vitro cytotoxicity activity of compound against leukemia L1210 cell line; assay type: functional, cell-based, Mus musculus
Mus musculus [1] = experiment: In vivo antitumor activity of compound against leukemia L1210 cell line at 60/30 mg/kg; value expressed as 97/107; assay type: functional
Mus musculus [2] = experiment: In vivo antitumor activity of compound against leukemia L1210 cell line at 60/30 mg/kg; value expressed as 102/106; assay type: functional
Mus musculus [3] = experiment: In vivo antitumor activity of compound against leukemia L1210 cell line at 4 mg/kg; assay type: functional, organism-based; set-up: dose 4 mg/kg
Mus musculus [4] = experiment: In vivo antitumor activity of compound against leukemia L1210 cell line at 40 mg/kg; assay type: functional, organism-based; set-up: dose 40 mg/kg

COCCOC(C)c1c(C)c2cc3[nH]c(cc4nc(cc5nc(cc1[nH]2)C(C)=C5CCC(=O)O)C(CCC(=O)O)=C4C)c(C)c3C(C)OCCOC (configuration not stated)
IC50 (L1210; Mus musculus, L1210): 2.6 µM
T/C (Mus musculus [1]): 107%

COCCOCCOCCOC(C)c1c(C)c2cc3[nH]c(cc4nc(cc5nc(cc1[nH]2)C(C)=C5CCC(=O)O)C(CCC(=O)O)=C4C)c(C)c3C(C)OCCOCCOCCOC (configuration not stated)
IC50 (L1210; Mus musculus, L1210): 6.6 µM
T/C (Mus musculus [2]): 106%

CISPLATIN
T/C (Mus musculus [3]): 184%

CARBOPLATIN [listing 1 of 2 here]
T/C (Mus musculus [4]): 168%

CARBOPLATIN [listing 2 of 2 here]
IC50 (L1210; l1210): 9.92 µM
